A word on the EC50: it is the concentration at which the effect is half-maximal.

Series [1] is described as follows: [14C]RD162′ radio-HPLC metabolite profile in Pooled Rat Plasma. The conditions noted are these: [14C]RD162′ 100 mg/kg/day oral, day 7, 4 h. The series is classed as in vivo, Sprague Dawley rats. On the procedure:
The rats were dosed once a day for seven consecutive days; four hours after dosing on the seventh day, plasma was collected from all three rats. The plasma samples were stored at approximately −70° C. or colder.
Positive ion electrospray LC/MS and LC/MS/MS were used to analyze the metabolites.
To prepare the Pooled Rat Plasma for HPLC analysis, approximately 1 g of the plasma sample was combined with acetonitrile (ACN, sample:ACN, 1:3, v:v), vortex mixed, sonicated in cold water, centrifuged, and the supernatants were removed. The extraction was repeated twice and the respective supernatants were combined. […] The combined supernatants were evaporated to dryness and reconstituted in 1 mL of 0.1% formic acid in reverse osmosis (RO) water:ACN: methanol (MeOH, 50:45:5, v:v:v). […] The reconstituted sample was analyzed by HPLC to determine the metabolite profile with fractions collected at 10-second intervals and analyzed by solid scintillation counting.
The prepared samples were analyzed using the following LC/MS/MS conditions: HPLC: Hewlett Packard 1100 series; Mobile Phase: 0.1% formic acid in reverse osmosis water (A) and acetonitrile (B); Column: Agilent Eclipse XDB-C18, 4.6×150 mm, 5 μm; Guard column: Phenomenex Security Guard Cartridge C18, 3×4 mm; Column temperature: 20° C.; Gradient: 20-80% B in 40 min; Flow Rate: 1.5 mL/min.

Another series deals with T1, Androgen Receptor (Homo sapiens, UniProt P10275).
T1 construct: expressed in transfected cells; host or cells: PathHunter NHRPro cell lines
T1 sequence (P10275 1-920): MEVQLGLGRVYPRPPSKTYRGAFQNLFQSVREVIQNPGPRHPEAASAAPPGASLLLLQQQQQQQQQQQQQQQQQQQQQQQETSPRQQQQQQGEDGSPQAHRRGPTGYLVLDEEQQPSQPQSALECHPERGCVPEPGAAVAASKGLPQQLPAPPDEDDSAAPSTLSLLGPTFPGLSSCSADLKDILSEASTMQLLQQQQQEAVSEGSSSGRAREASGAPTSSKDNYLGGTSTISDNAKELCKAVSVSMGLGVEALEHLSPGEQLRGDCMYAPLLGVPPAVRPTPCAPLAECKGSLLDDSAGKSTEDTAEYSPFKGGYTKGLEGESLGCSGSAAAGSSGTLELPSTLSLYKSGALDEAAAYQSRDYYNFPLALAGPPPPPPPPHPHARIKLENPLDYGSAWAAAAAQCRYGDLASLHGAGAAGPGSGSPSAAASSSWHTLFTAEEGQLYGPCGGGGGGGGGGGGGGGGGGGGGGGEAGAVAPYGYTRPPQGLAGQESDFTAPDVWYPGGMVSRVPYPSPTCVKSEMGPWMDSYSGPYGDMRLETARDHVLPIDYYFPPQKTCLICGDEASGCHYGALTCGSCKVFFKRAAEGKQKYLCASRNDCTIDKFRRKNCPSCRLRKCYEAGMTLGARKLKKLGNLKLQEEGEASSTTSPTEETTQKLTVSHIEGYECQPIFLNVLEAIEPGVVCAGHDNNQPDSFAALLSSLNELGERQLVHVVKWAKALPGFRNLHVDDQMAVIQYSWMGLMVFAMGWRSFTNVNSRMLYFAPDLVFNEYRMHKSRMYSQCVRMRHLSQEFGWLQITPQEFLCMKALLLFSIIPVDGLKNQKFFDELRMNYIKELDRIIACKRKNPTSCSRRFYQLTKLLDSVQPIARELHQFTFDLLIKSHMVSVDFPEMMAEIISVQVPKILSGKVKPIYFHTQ
The experiment in a line: Androgen Receptor Nuclear Translocation Assay. Type of series: cell-based. The conditions noted are these: agonist mode; PathHunter NHRPro cells; 5 h; read-out: AR Nuclear Translocation Assay Agonist Mode EC50. Here is the method:
Once it was established that the cells were healthy and growing normally, cells were transferred from flasks using trypsin-free cell dissociation buffer and seeded into white walled clear bottom 384-well microplates for compound profiling. For profiling, cells were seeded at a density of 10,000 cells per well in a total volume of 50 μL and were allowed to adhere and recover overnight prior to compound addition. Media contained charcoal-dextran filtered serum to reduce the level of hormones present.
Agonist Format: Intermediate dilution of compound stocks were generated such that 5.5 μL of 10X compound could be added to each well with a final DMSO concentration of 1% of total volume. For profiling compound in agonist mode, the cells were incubated in the presence of compound at 37° C. for 5 h.
Antagonist Format: Agonist dose curves were performed to determine the EC80 value for the following antagonist testing with compounds. 5.5 μL of 10× agonist was added to each well with an equal concentration of vehicle present. EC80 agonist concentration was determined directly from agonist dose curve. For antagonist determination, cells were pre-incubated with antagonist followed by agonist challenge at the EC80 concentration: 5.5 μL of 10× compound added to cells and incubated at 37° C. for 1 h; 5.5 μL of 11× EC80 agonist added to cells and incubated at 37° C. for 5 h.
Signal Detection: After appropriate compound incubation, assay signal was generated through a single addition of 30 μL (50% v/v) of PathHunter Detection reagent cocktail for agonist and antagonist assays respectively followed by 1 h incubation at room temperature. Microplates were read following signal generation with a PerkinElmer ViewLux™ instrument for chemiluminescent signal detection.
Data Analysis: Dose curves in the presence and absence of compound were plotted using GraphPad Prism.

As to `CC1(C)C(=O)N(c2ccc(C#N)c(C(F)(F)F)c2)C(=O)N1c1ccc(C(=O)O)c(F)c1` [(MV), 4-(3-(4-cyano-3-(trifluoromethyl)phenyl)-5,5-dimethyl-2,4-dioxoimidazolidin-1-yl)-2-fluorobenzoic acid], in series [1], the “% Injected Radioactivity (%)” value was found to be 5.76%, the “% Recovered Radioactivity (%)” value amounted to 9.05%, the “Peak Area (mV)” value turned out to be 308 mV and the “Peak Height (mV)” value is listed as 49 mV.

Turning to Norgesterol [reference compound], the EC50 at Androgen Receptor came to 2.9 nM.

For the origin of these results see US8524755B2 (priority 2009, dated 2013).
